Measured values taken from patent US12324447B2, “Animal feed compositions and uses thereof” (priority 2015, dated 2025).
“Also recorded” adds a separate entry of the source. Read-outs that look alike come from different tables or passages of the source. Marks after values point to notes of the source that are not given here.

Experiments:
[1] = In vivo broiler trial (growth performance)
[2] = In vivo piglet trial (growth performance); design: species or system weaned piglets (Large-White x Redon); settings: for ADFI (g/d), Mean / ADWG (g/d), Mean / FCR, Mean: SEQ ID NO: 257 50 mg/kg feed, VevoVital 5000 mg/kg feed; for ADFI, % relative NC / ADWG, % relative NC / FCR, % relative NC: relative to negative control
[3] = test system: Clostridium perfringens DSM756; type: cell-based; settings: for Diameter of clearing zone (mm): lysozymes 100 μg/ml, Bacitracin zinc salt 50 μg/ml; for Antimicrobial activity against Clostridium perfringens (in words): RDA; for Diameter of clearing zone (mm), bracketed with *: Incomplete inhibition of growth visible after MTT colouring: lysozyme 100 μg/ml
[4] = test system: Exiguobacterium undea (DSM14481); experiment: Lysozyme activity turbidity assay (optical density drop at 540 nm); type: biochemical, Exiguobacterium undae; settings: for Lysozyme activity against Exiguobacterium undea (in words): OD drop assay
[5] = test system: Micrococcus lysodeikticus ATTC No. 4698; experiment: as above; settings: for Lysozyme activity against Micrococcus lysodeikticus (in words): OD drop assay
[6] = Finisher (d 36-42), SEQ ID NO: 257 25 mg/kg feed, Avilamycin 10 mg/kg
[7] = Finisher (d 36-42), relative to unsupplemented control
[8] = Grower (d 22-36), SEQ ID NO: 257 25 mg/kg feed, Avilamycin 10 mg/kg
[9] = Grower (d 22-36), relative to unsupplemented control
[10] = Starter (d 1-22), SEQ ID NO: 257 25 mg/kg feed, Avilamycin 10 mg/kg
[11] = Starter (d 1-22), relative to unsupplemented control
[12] = Whole period (day 1 to day 42), SEQ ID NO: 257 25 mg/kg feed, Avilamycin 10 mg/kg
[13] = Whole period, relative to unsupplemented control

Molecule: COC[C@H]1O[C@@H](OC2OC[C@@H]3O[C@]4(O[C@H]3[C@H]2OC(=O)C(C)C)O[C@H](C)[C@@](O)(C(C)=O)[C@@H]2OCO[C@H]24)[C@@H](OC)[C@@H](O)[C@@H]1O[C@@H]1O[C@H](C)[C@H](OC)[C@H](O[C@H]2C[C@@]3(C)OC4(C[C@@H](O)[C@H](O[C@H]5C[C@@H](O)[C@H](OC(=O)c6c(C)c(Cl)c(O)c(Cl)c6OC)[C@@H](C)O5)[C@@H](C)O4)O[C@@H]3[C@@H](C)O2)[C@H]1O (some centres unmarked) [Avilamycin, reference compound]
- FCR [1, 6]: 1.982
- Feed intake (g/b) [1, 6]: 1460 g/b
- Weight gain (g/b) [1, 6]: 738 g/b
- FCR, Relative to C (%) [1, 7]: 101.1%
- Feed intake, Relative to C (%) [1, 7]: 98.2%
- Weight gain, Relative to C (%) [1, 7]: 97.0%
- FCR [1, 8]: 1.683
- Feed intake (g/b) [1, 8]: 2242 g/b
- Weight gain (g/b) [1, 8]: 1334 g/b
- FCR, Relative to C (%) [1, 9]: 97.7%
- Feed intake, Relative to C (%) [1, 9]: 98.1%
- Weight gain, Relative to C (%) [1, 9]: 100.4%
- FCR [1, 10]: 1.452
- Feed intake (g/b) [1, 10]: 1593 g/b
- Weight gain (g/b) [1, 10]: 1102 g/b
- FCR, Relative to C (%) [1, 11]: 100.8%
- Feed intake, Relative to C (%) [1, 11]: 101.0%
- Weight gain, Relative to C (%) [1, 11]: 100.6%
- EPEF [1, 12]: 397
- FCR [1, 12]: 1.669
- Feed intake (g/b) [1, 12]: 5312 g/b
- Motality [1, 12]: 12.5
- Weight gain (g/b) [1, 12]: 3184 g/b
- EPEF, Relative to C (%) [1, 13]: 95.0%
- FCR, Relative to C (%) [1, 13]: 99.3%
- Feed intake, Relative to C (%) [1, 13]: 99.3%
- Weight gain, Relative to C (%) [1, 13]: 99.9%
- EPEF worse by (compared to NC diet) ([1]; whole period, Avilamycin 10 mg/kg): 5.0%
- FCR improvement compared to NC diet ([1]; whole period, GH24 lysozyme 25 mg/kg, Avilamycin 10 mg/kg): 0.7%

Molecule: O=C(O)c1ccccc1 [VevoVital, benzoic acid]
- ADFI (g/d), Mean ([2]; day 0-14): 355 g/day
- ADWG (g/d), Mean ([2]; day 0-14): 304 g/day
- FCR, Mean ([2]; day 0-14): 1.168^a
- ADFI, % relative NC ([2]; day 0-14): 98.6%
- ADWG, % relative NC ([2]; day 0-14): 104.8%
- FCR, % relative NC ([2]; day 0-14): 94.2%
- ADFI (g/d), Mean ([2]; day 0-42): 709^ab g/d
- ADWG (g/d), Mean ([2]; day 0-42): 526 g/day
- FCR, Mean ([2]; day 0-42): 1.342^a
- ADFI, % relative NC ([2]; day 0-42): 96.6%
- ADWG, % relative NC ([2]; day 0-42): 105.4%
- FCR, % relative NC ([2]; day 0-42): 90.4%
- ADFI (g/d), Mean ([2]; day 14-42): 886^ab g/d
- ADWG (g/d), Mean ([2]; day 14-42): 638 g/day
- FCR, Mean ([2]; day 14-42): 1.398^a
- ADFI, % relative NC ([2]; day 14-42): 95.3%
- ADWG, % relative NC ([2]; day 14-42): 105.8%
- FCR, % relative NC ([2]; day 14-42): 90.5%
- Improvement on FCR compared to the negative control ([2]; overall period (day 0 to day 42), lysozyme 50 mg/kg, VevoVital 5000 mg/kg): 9.6%
- Improvement of ADWG compared to NC ([2]; pre-starter period (days 0-14)): 4.8%
- Improvement of ADWG compared to NC ([2]; starter period (days 14-42)): 5.8%
- Improvement to FCR compared to NC ([2]; starter period, from day 15 to day 42, SEQ ID NO: 257 50 mg/kg, VevoVital (PC)): 9.5%
- Improvement of ADWG compared to NC ([2]; whole period (day 0 to day 42)): 5.4%

Molecule: Bacitracin zinc salt [reference compound]
- Diameter of clearing zone (mm) ([3]; Experiment 1, 1/2 MHB pH 6): 11 mm
- Diameter of clearing zone (mm) ([3]; Experiment 1, 1/10 MHB pH 7): 22 mm
- Diameter of clearing zone (mm) ([3]; Experiment 2, 1/10 MHB pH 7): 18 mm

B1: SEQ ID NO: 279: mature GH24 lysozyme from Acremonium alcalophilum, mature sequence of SEQ ID NO: 4 of WO 2013/076259; no LED (protein, listed as Acremonium alcalophilum)
chain: QCVGPEVNSASINLIKEFEGWYPDIYVDPAGYPTVGYGHLCSDSSCSDVSYSIPLSEADGENLLRDDITNFQNCITWQTASSVVLNANQYGALVSWAFNVGCGASESSSLIARLNAGEDPNTVAEEELPRWNQGGGQVLPGLVRRRAAEVELHQIPTDVAALPACS
modifications: mat_peptide (1)..(166)
notes: no LED
- Diameter of clearing zone (mm) ([3]; Experiment 1, 1/2 MHB pH 6): 0 mm
- Diameter of clearing zone (mm) ([3]; Experiment 1, 1/10 MHB pH 7): 0 mm
- Diameter of clearing zone (mm) ([3]; Experiment 2, 1/10 MHB pH 7): 0 mm
- Antimicrobial activity against Clostridium perfringens (in words) ([3]; tested conditions (1/10 MHB pH 7 and 1/2 MHB pH 6)): do not have any activity; also recorded: did not inhibit growth

B2: SEQ ID NO: 291: mature GH24 lysozyme from Trichophaea minuta (protein, listed as Trichophaea minuta)
chain: YPAKVDLRCRSSPSTSASVVRTYSKGSEIQISCQTTGTSVEGSNVWDKTQHGCYVADYYVKTGHSGIFTTKCGSSSGGGSCKPPPINAATVALIKEFEGFVAKPAPDPIGLPTVGYGHLCKTKGCKEVPYSFPLTQTTATKLLQSDIKTFTSCVSNYVKDSVKLNDNQFGALSSWAFNVGCGNIQTSSLIKRLNAGENPNTVAAQELPKWKYAGGKVLPGLVRRRKAEVALFKKPSSVQAHPPKC
modifications: mat_peptide (1)..(245)
notes: mature GH24 lysozyme from Trichophaea minuta
- Lysozyme activity against Exiguobacterium undea (in words) [4]: good activity
- Lysozyme Activity against Exiguobacterium undae as measured by Optical Density Drop ([4]; assay pH 6 (Table 14)): ++++
- Lysozyme activity against Micrococcus lysodeikticus (in words) [5]: good activity
- Lysozyme Activity against Micrococcus lysodeikticus as measured by Optical Density Drop ([5]; assay pH 6 (Table 14)): ++++

B3: SEQ ID NO: 300: mature GH24 lysozyme from Metarhizium sp. XZ2431 (protein, listed as Metarhizium sp.)
chain: YPVSADSLNCRAEPNTSSAIKTTYKKGEDVKISCQTEGPSINGNTIWDKTQDGCYVADYYVKTGSSGYVTGKCGGSSPPSGSGFCKTVNKAGLDLITKWEGFVSSPRGDPIGLPTVGYGHLCQKKGCAEVKYKFPLTKATALQLLNDDLPKYTGCLGKLLNSKVKLNDNQWAALTSWVFNVGCGNAQSSSLVRRLNNGENPNTVAPSELPKWKMAGGKVLEGLVKRRADEVRLFKVSSSKGAFPKCQ
modifications: mat_peptide (1)..(247)
notes: mature GH24 lysozyme from Metarhizium sp; XZ2431
- Lysozyme activity against Exiguobacterium undea (in words) [4]: good activity
- Lysozyme Activity against Exiguobacterium undae as measured by Optical Density Drop ([4]; assay pH 6 (Table 14)): +++
- Lysozyme activity against Micrococcus lysodeikticus (in words) [5]: good activity
- Lysozyme Activity against Micrococcus lysodeikticus as measured by Optical Density Drop ([5]; assay pH 6 (Table 14)): +++

B4: SEQ ID NO: 297: mature GH24 lysozyme from Mortierella sp. ZY002 (protein, listed as Mortierella sp.)
chain: YPITGADALHCRSGPGTSYPIQKTLRPPQDIKIQCQEPGTVVNGVSLWDKTQFGCYVSDYYVKTGTGNYVAPRCNSGGSSSACTGLNDAGINLIKEFEGFVPRPAPDPIGLPTVGYGHLCQTKGCGEVKYSFPLTTATATALLKDDLPKYTSCLAKALNGKPKLNKNQWAALASWTFNVGCGNMKSSSLITRLNAGQNPNTVATEELPKWKLAGGKVLPGLVRRRAAEVKLFKTANSSQGYPKCA
modifications: mat_peptide (1)..(245)
notes: mature GH24 lysozyme from Mortierella sp; ZY002
- Lysozyme activity against Exiguobacterium undea (in words) [4]: good activity
- Lysozyme Activity against Exiguobacterium undae as measured by Optical Density Drop ([4]; assay pH 6 (Table 14)): +++
- Lysozyme activity against Micrococcus lysodeikticus (in words) [5]: good activity
- Lysozyme Activity against Micrococcus lysodeikticus as measured by Optical Density Drop ([5]; assay pH 6 (Table 14)): ++++

B5: SEQ ID NO: 269: amino acid sequence deduced from SEQ ID NO: 268: GH24 catalytic domain with QCVG-linker and signal peptide; precursor of SEQ ID NO: 270 (protein)
chain: MAKVSTLTIALLTMASQARAQCVGCKPPPINAATVALIKEFEGFVPKPAPDPIGLPTVGYGHLCKTKGCKEVPYSFPLTQETATKLLQSDIKTFTSCVSNYVKDSVKLNDNQYGALASWAFNVGCGNVQTSSLIKRLNAGENPNTVAAQELPKWKYAGGKVMPGLVRRRNAEVALFKKPSSVQAHPPKC
- Antimicrobial activity against Clostridium perfringens (in words) ([3]; 1/10 MHB, pH 7): incomplete inhibition of growth
- Antimicrobial activity against Clostridium perfringens (in words) ([3]; 50% MHB, pH 6): no inhibition of growth

B6: SEQ ID NO: 294: mature GH24 lysozyme from Chaetomium sp. ZY287 (protein, listed as Chaetomium sp.)
chain: YKISGSSVNCRSGPGTNYPVKKTYANGDEVTISCQTTGTNVEGNNIWDKTQHGCYVADKYVKTGKDGFVTKKCGSSGGGGGGKTCKAPKSNAATVDLIASFEGFRANIYTDATGHPTVGYGHMCTKSRCAEVKYKIPLSKADGKKLLADDMAKFEKCIKEMLNSKAKLNLNQYGALVSWSFNVGCGAAKGSQLVSRLNKGENPNTVLSNELPKWVHGNGKVLPGLVRRRNAEIALAKKSGSGAALPVKC
modifications: mat_peptide (1)..(249)
notes: mature GH24 lysozyme from Chaetomium sp; ZY287
- Lysozyme activity against Exiguobacterium undea (in words) [4]: good activity
- Lysozyme Activity against Exiguobacterium undae as measured by Optical Density Drop ([4]; assay pH 7 (Table 14)): +++
- Lysozyme activity against Micrococcus lysodeikticus (in words) [5]: good activity
- Lysozyme Activity against Micrococcus lysodeikticus as measured by Optical Density Drop ([5]; assay pH 7 (Table 14)): +++

B7: SEQ ID NO: 270: mature GH24 catalytic domain from Trichophaea saccata with QCVG-linker (SEQ ID NO: 257 lacking the LED) (protein)
chain: QCVGCKPPPINAATVALIKEFEGFVPKPAPDPIGLPTVGYGHLCKTKGCKEVPYSFPLTQETATKLLQSDIKTFTSCVSNYVKDSVKLNDNQYGALASWAFNVGCGNVQTSSLIKRLNAGENPNTVAAQELPKWKYAGGKVMPGLVRRRNAEVALFKKPSSVQAHPPKC
- Diameter of clearing zone (mm) ([3]; Experiment 1, 1/2 MHB pH 6): 0 mm
- Diameter of clearing zone (mm), bracketed with *: Incomplete inhibition of growth visible after MTT colouring ([3]; Experiment 1, 1/10 MHB pH 7): (8)* mm
- Diameter of clearing zone (mm), bracketed with *: Incomplete inhibition of growth visible after MTT colouring ([3]; Experiment 2, 1/10 MHB pH 7): (5)* mm
- Antimicrobial activity against Clostridium perfringens (in words) ([3]; 50% MHB, pH 6): no activity
- Lysozyme activity against Micrococcus lysodeikticus (in words) [5]: no lysozyme activity
- Lysozyme Activity against Micrococcus lysodeikticus as measured by Optical Density Drop ([5]; assay pH 6): −
